Reference: ChEMBL document CHEMBL1134456, “Design, synthesis and pharmacological characterization of a potent radioiodinated and photoactivatable peptidic oxytocin antagonist” (J Med Chem, 2001)
pIC50, pKd, pKi: −log10 of the molar value. Starred links: 1 amine or outer side, 2 acyl side, 3 side chain; linkers in the order of their positions; H or OH if unused. Positions of bridges follow the written chain, without caps; N, C: chain ends. Non-standard residues stand in square brackets, D forms with d. Residues, ends and D or L forms follow the SMILES beside them. X1 = [N-]=[N+]=Nc1ccc(C[C@H](N[*:1])C(=O)[*:2])cc1I; X2 = O=C(CC1(S[*:2])CCCCC1)[*:1]; Orn = NCCC[C@H](N)C(=O)O

How the values were obtained:
Oxytocin receptor [1] = biological target: T1, Oxytocin receptor (Homo sapiens, UniProt P30559); assay: Binding affinity towards OT receptor in CHO cells expressing the human OT receptor; type: cell-based
T1 sequence (P30559 whole entry): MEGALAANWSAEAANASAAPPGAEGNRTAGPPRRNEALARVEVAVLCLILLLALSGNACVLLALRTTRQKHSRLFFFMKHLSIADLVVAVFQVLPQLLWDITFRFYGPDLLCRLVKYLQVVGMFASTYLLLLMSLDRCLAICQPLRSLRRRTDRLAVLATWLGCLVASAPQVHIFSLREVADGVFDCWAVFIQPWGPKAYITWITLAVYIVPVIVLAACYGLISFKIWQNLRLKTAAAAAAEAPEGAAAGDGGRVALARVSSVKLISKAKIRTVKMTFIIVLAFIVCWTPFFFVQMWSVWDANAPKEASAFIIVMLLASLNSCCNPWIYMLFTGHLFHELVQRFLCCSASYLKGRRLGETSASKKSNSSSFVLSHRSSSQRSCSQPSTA

Oxytocin receptor [2] = biological target: T1, Oxytocin receptor; assay: Dissociation constant value for human OT-receptor
Oxytocin receptor [3] = biological target: T1, Oxytocin receptor; assay: Ability to inhibit OT-induced inositol phosphate accumulation was determined in CHO cells expressing the human OT receptor; type: functional, cell-based

pKi (Oxytocin receptor [1]; cho) | pKd (Oxytocin receptor [2]) | pIC50 (Oxytocin receptor [3]) | pKi (Oxytocin receptor [1]) | Compound
8.64 | – | – | – | CC[C@H](C)[C@@H]1NC(=O)[C@H](Cc2ccc(OC)cc2)NC(=O)CC2(CCCCC2)SSC[C@@H](C(=O)NCC(=O)N[C@@H](CCCN)C(=O)N[C@@H](Cc2ccc(N=[N+]=[N-])c(I)c2)C(N)=O)NC(=O)[C@H](CC(N)=O)NC(=O)[C@H]([C@@H](C)O)NC1=O (Y(Me)ITNCG[Orn][X1]-NH2; linker N-5 via X2)
9.52 | 9.60 | 9.49 | – | CC[C@H](C)[C@@H]1NC(=O)[C@H](Cc2ccc(OC)cc2)NC(=O)CC2(CCCCC2)SSC[C@@H](C(=O)N2CCC[C@H]2C(=O)N[C@@H](CCCN)C(=O)N[C@@H](Cc2ccc(N=[N+]=[N-])c(I)c2)C(N)=O)NC(=O)[C@H](CC(N)=O)NC(=O)[C@H]([C@@H](C)O)NC1=O (Y(Me)ITNCP[Orn][X1]-NH2; linker N-5 via X2)
7.74 | – | – | – | CC[C@H](C)[C@@H]1NC(=O)[C@H](Cc2ccc(O)cc2)NC(=O)CC2(CCCCC2)SSC[C@@H](C(=O)NCC(=O)N[C@@H](CCCN)C(=O)N[C@@H](Cc2ccc(N=[N+]=[N-])c(I)c2)C(N)=O)NC(=O)[C@H](CC(N)=O)NC(=O)[C@H]([C@@H](C)O)NC1=O (YITNCG[Orn][X1]-NH2; linker N-5 via X2)
– | – | – | 9.22 | CC[C@H](C)[C@@H]1NC(=O)[C@H](Cc2ccc(O)cc2)NC(=O)CC2(CCCCC2)SSC[C@@H](C(=O)N2CCC[C@H]2C(=O)N[C@@H](CCCN)C(=O)N[C@@H](Cc2ccc(N=[N+]=[N-])c(I)c2)C(N)=O)NC(=O)[C@H](CC(N)=O)NC(=O)[C@H]([C@@H](C)O)NC1=O (YITNCP[Orn][X1]-NH2; linker N-5 via X2)
